Nine molecules from US20220081435A1, “ANDROGEN RECEPTOR PROTEIN DEGRADERS” (THE REGENTS OF THE UNIVERSITY OF MICHIGAN, priority 2019, published 2022) can be followed below.

The experiment deals with T1, AR protein (Homo sapiens, UniProt P10275, T878A).
T1 construct: The percent AR protein degradation induced by these compounds at various concentrations in LNCaP cells; host or cells: LNCaP
T1 sequence (P10275 1-920 T878A): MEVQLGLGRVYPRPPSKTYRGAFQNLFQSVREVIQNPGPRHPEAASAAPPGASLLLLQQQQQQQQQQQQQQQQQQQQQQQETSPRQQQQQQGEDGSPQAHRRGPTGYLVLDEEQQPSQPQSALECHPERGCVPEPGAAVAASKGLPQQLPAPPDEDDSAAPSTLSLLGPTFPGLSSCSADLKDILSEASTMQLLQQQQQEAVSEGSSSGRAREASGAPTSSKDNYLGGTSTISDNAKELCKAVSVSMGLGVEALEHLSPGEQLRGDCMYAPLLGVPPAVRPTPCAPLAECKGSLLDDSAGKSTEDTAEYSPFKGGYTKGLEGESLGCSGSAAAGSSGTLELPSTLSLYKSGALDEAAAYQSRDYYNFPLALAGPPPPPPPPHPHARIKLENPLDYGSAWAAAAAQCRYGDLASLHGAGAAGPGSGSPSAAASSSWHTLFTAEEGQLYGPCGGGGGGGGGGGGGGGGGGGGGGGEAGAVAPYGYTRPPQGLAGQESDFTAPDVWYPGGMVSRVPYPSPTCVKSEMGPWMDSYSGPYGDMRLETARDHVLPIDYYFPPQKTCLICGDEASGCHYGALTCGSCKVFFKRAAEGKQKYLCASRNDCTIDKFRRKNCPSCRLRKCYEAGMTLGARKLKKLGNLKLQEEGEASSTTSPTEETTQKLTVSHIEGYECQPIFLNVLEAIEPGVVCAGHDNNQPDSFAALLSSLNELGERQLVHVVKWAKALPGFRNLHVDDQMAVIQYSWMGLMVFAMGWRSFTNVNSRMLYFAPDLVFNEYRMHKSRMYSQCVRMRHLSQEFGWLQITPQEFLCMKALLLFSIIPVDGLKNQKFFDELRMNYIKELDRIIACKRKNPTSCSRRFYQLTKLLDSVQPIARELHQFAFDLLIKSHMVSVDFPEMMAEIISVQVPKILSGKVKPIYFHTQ
Description: AR protein degradation in LNCaP cells (Western blotting). The experiment is classed as cell-based. Conditions: treatment time 6 h, average of three independent experiments; for Dmax at 0.01 µM / Dmax at 0.1 µM / Dmax at 1 µM / Dmax at 10 µM: LNCaP; for Dmax at 0.1 µM / Dmax at 1 µM / Dmax at 10 µM: read-out: % AR protein degradation in LNCaP Cells. On the procedure:
Cell lines and Cell Culture: All the LNCaP, VCaP and 22RV1 cells used were purchased from American Type Culture Collection (ATCC). […] All of the cells were supplemented with 10% fetal bovine serum (Invitrogen) at 37° C. in a humidified 5% CO2 incubator.
Western Blotting. Treated cells were lysed by RIPA buffer supplemented with protease and phosphatase inhibitors. […] Software ImageJ was used to quantify the percentage of AR degradation. The net protein bands and loading controls are calculated by deducting the background from the inverted band value. The final relative quantification values are the ratio of net band to net loading control.
In general terms: A western blot detects proteins with antibodies after separation by electrophoresis.

With `Cc1ncsc1-c1ccc(CNC(=O)C2C[C@@H](O)CN2C(=O)[C@@H](NC(=O)CCCCCCc2ccc(C#Cc3ccc(N4C(=S)N(c5ccc(C#N)c(C(F)(F)F)c5)C(=O)C4(C)C)cc3)cn2)C(C)(C)C)cc1` (stereo partly drawn) [Compound 19, (4R)-1-((S)-2-(7-(5-((4-(3-(4-Cyano-3-(trifluoromethyl)phenyl)-5,5-dimethyl-4-oxo-2-thioxoimidazolidin-1-yl)phenyl)ethynyl)pyridin-2-yl)heptanamido)-3,3-dimethylbutanoyl)-4-hydroxy-N-(4-(4-methylthiazol-5-yl)benzyl)pyrrolidine-2-carboxamide], the Dmax at 0.01 µM (0.01 μM) was 30%. The Dmax at 0.1 µM (0.1 μM) was found to be 63%. In addition, for the setting “1 μM”, the Dmax at 1 µM stood at 96%.

With `Cc1ncsc1-c1ccc(CNC(=O)C2C[C@@H](O)CN2C(=O)[C@@H](NC(=O)CCCNC(=O)c2ccc(N3C(=S)N(c4ccc(C#N)c(C(F)(F)F)c4)C(=O)C3(C)C)cc2F)C(C)(C)C)cc1` (stereo partly drawn) [Compound 9, (4R)-1-((S)-2-(4-(4-(3-(4-Cyano-3-(trifluoromethyl)phenyl)-5,5-dimethyl-4-oxo-2-thioxoimidazolidin-1-yl)-2-fluorobenzamido)butanamido)-3,3-dimethylbutanoyl)-4-hydroxy-N-(4-(4-methylthiazol-5-yl)benzyl)pyrrolidine-2-carboxamide], the Dmax at 10 µM worked out at 33%. In addition, where the note is “0.1 μM”, the Dmax at 0.1 µM was 15%. In addition, the Dmax at 1 µM (1 μM) came out at 23%.

`Cc1ncsc1-c1ccc(CNC(=O)C2C[C@@H](O)CN2C(=O)[C@@H](NC(=O)CCCCCCNC(=O)c2ccc(N3C(=S)N(c4ccc(C#N)c(C(F)(F)F)c4)C(=O)C3(C)C)cc2F)C(C)(C)C)cc1` (stereo partly drawn) [Compound 12, (4R)-1-((S)-2-(7-(4-(3-(4-Cyano-3-(trifluoromethyl)phenyl)-5,5-dimethyl-4-oxo-2-thioxoimidazolidin-1-yl)-2-fluorobenzamido)heptanamido)-3,3-dimethylbutanoyl)-4-hydroxy-N-(4-(4-methylthiazol-5-yl)benzyl)pyrrolidine-2-carboxamide]: the Dmax at 10 µM was found to be 64%. For the same molecule, the Dmax at 0.1 µM (0.1 μM) was determined as 54%. In addition, the Dmax at 1 µM (1 μM) amounted to 84%.

As to `Cc1ncsc1-c1ccc(CNC(=O)C2C[C@@H](O)CN2C(=O)[C@@H](NC(=O)CCCCCCCCCNC(=O)c2ccc(N3C(=S)N(c4ccc(C#N)c(C(F)(F)F)c4)C(=O)C3(C)C)cc2F)C(C)(C)C)cc1` (stereo partly drawn) [Compound 15, (4R)-1-((S)-2-(10-(4-(3-(4-Cyano-3-(trifluoromethyl)phenyl)-5,5-dimethyl-4-oxo-2-thioxoimidazolidin-1-yl)-2-fluorobenzamido)decanamido)-3,3-dimethylbutanoyl)-4-hydroxy-N-(4-(4-methylthiazol-5-yl)benzyl)pyrrolidine-2-carboxamide], the Dmax at 0.01 µM (0.01 μM) worked out at 10%. Further, the Dmax at 0.1 µM (0.1 μM) came out at 48%. Further, for the setting “1 μM”, the Dmax at 1 µM is 88%.

Under “0.01 μM”, `Cc1cc([C@H](C(=O)N2C[C@H](O)C[C@H]2C(=O)N[C@@H](CC(=O)NCCCCCCCCCNC(=O)c2ccc(C(=O)N[C@H]3C(C)(C)[C@H](Oc4ccc(C#N)c(Cl)c4)C3(C)C)cc2)c2ccc(-c3scnc3C)cc2)C(C)C)on1` [Compound 39, N1-((1r,3r)-3-(3-Chloro-4-cyanophenoxy)-2,2,4,4-tetramethylcyclobutyl)-N4-(9-((S)-3-((2S,4R)-4-hydroxy-1-((R)-3-methyl-2-(3-methylisoxazol-5-yl)butanoyl)pyrrolidine-2-carboxamido)-3-(4-(4-methylthiazol-5-yl)phenyl)propanamido)nonyl)terephthalamide] returned a Dmax at 0.01 µM of 43%. Also, the Dmax at 0.1 µM (0.1 μM) came to 91%. The Dmax at 1 µM (1 μM) came out at 96%.

`Cc1ncsc1-c1ccc(CNC(=O)C2C[C@@H](O)CN2C(=O)[C@@H](NC(=O)CCNC(=O)c2ccc(N3C(=S)N(c4ccc(C#N)c(C(F)(F)F)c4)C(=O)C3(C)C)cc2F)C(C)(C)C)cc1` (stereo partly drawn) [Compound 8, (4R)-1-((S)-2-(3-(4-(3-(4-Cyano-3-(trifluoromethyl)phenyl)-5,5-dimethyl-4-oxo-2-thioxoimidazolidin-1-yl)-2-fluorobenzamido)propanamido)-3,3-dimethylbutanoyl)-4-hydroxy-N-(4-(4-methylthiazol-5-yl)benzyl)pyrrolidine-2-carboxamide]: the Dmax at 10 µM came to 28%. Moreover, under “0.1 μM”, the Dmax at 0.1 µM turned out to be 26%. For the same molecule, for the setting “1 μM”, the Dmax at 1 µM turned out to be 35%.

For `Cc1cc([C@H](C(=O)N2C[C@H](O)C[C@H]2C(=O)N[C@@H](CC(=O)N2CCN(c3ccc(C#Cc4ccc(C(=O)N[C@H]5C(C)(C)[C@H](Oc6ccc(C#N)c(Cl)c6)C5(C)C)cc4)cn3)CC2)c2ccc(-c3scnc3C)cc2)C(C)C)on1` [Compound 28, (2S,4R)—N—((S)-3-(4-(5-((4-(((1r,3r)-3-(3-Chloro-4-cyanophenoxy)-2,2,4,4-tetramethylcyclobutyl)carbamoyl)phenyl)ethynyl)pyridin-2-yl)piperazin-1-yl)-1-(4-(4-methylthiazol-5-yl)phenyl)-3-oxopropyl)-4-hydroxy-1-((R)-3-methyl-2-(3-methylisoxazol-5-yl)butanoyl)pyrrolidine-2-carboxamide], the “% AR protein degradation in LNCaP Cells” value reads like this: (0.01 μM) 22%; (0.1 μM) 72%; (1 μM) 93%.

Regarding `Cc1ncsc1-c1ccc([C@H](C)NC(=O)C2C[C@@H](O)CN2C(=O)[C@@H](NC(=O)CCCN2CCN(c3ccc(C#Cc4ccc(N5C(=S)N(c6ccc(C#N)c(C(F)(F)F)c6)C(=O)C5(C)C)cc4)cn3)CC2)C(C)(C)C)cc1` (stereo partly drawn) [Compound 21, (4R)-1-((S)-2-(4-(4-(5-((4-(3-(4-Cyano-3-(trifluoromethyl)phenyl)-5,5-dimethyl-4-oxo-2-thioxoimidazolidin-1-yl)phenyl)ethynyl)pyridin-2-yl)piperazin-1-yl)butanamido)-3,3-dimethylbutanoyl)-4-hydroxy-N—((S)-1-(4-(4-methylthiazol-5-yl)phenyl)ethyl)pyrrolidine-2-carboxamide], the Dmax at 0.01 µM (0.01 μM) came to 37%. Also, the Dmax at 0.1 µM (0.1 μM) is 61%. Besides, for the setting “1 μM”, the Dmax at 1 µM came to 92%.

Under “0.01 μM”, `Cc1cc([C@H](C(=O)N2C[C@H](O)C[C@H]2C(=O)N[C@@H](CC(=O)NCCCN2CCN(c3ccc(C#Cc4ccc(N5C(=S)N(c6ccc(C#N)c(C(F)(F)F)c6)C(=O)C5(C)C)cc4)cn3)CC2)c2ccc(-c3scnc3C)cc2)C(C)C)on1` [Compound 27, (2S,4R)—N—((S)-3-((3-(4-(5-((4-(3-(4-Cyano-3-(trifluoromethyl)phenyl)-5,5-dimethyl-4-oxo-2-thioxoimidazolidin-1-yl)phenyl)ethynyl)pyridin-2-yl)piperazin-1-yl)propyl)amino)-1-(4-(4-methylthiazol-5-yl)phenyl)-3-oxopropyl)-4-hydroxy-1-((R)-3-methyl-2-(3-methylisoxazol-5-yl)butanoyl)pyrrolidine-2-carboxamide] displayed a Dmax at 0.01 µM of 27%. For the same molecule, the Dmax at 0.1 µM (0.1 μM) is 75%. Moreover, for the setting “1 μM”, the Dmax at 1 µM is 94%.
